Source: patent US20070010488A1, “Compounds for modulating cell proliferation” (priority 2005, published 2007)
Values joined by “and” are separate entries in the source; they are usually repeats but may differ in a detail not shown here. Equal entries are not always repeated. Where two headings read alike, the source gives them in different places.

How the values were obtained:
[1] = system: MOLT-4 (T-ALL); test: Alamar Blue cell viability assay, MOLT-4; assay type: cell-based; details: Homo sapiens, 72 hours
Method: (§1) Each test compound was weighed between the ranges of 0.5-2.0 mg, and then dissolved in a specified volume of DMSO to produce a solution of 10 mM. Appropriate dilutions in cell culture medium were made to produce a stock solution of 400 μM. All subsequent dilutions were also done in cell culture medium. This stock solution was then used for further dilutions to produce the initial concentration to be added to the 50 μL and 450 μL of cells in the 96-well and the 48-well microtiter plates, respectively:
(§2) The initial concentration for cells that were cultured in 50 μL 96-well plates was 40 μM. […]
(§3) 50 μL of cell culture medium containing the test compound was added to each well twenty four hours after seeding. […] Proliferation of cells was assessed using the fluorimetric Alamar Blue (CellTiter Blue) test and cell counting.
(§4) For the Alamar Blue assay, untreated cells were used as growth controls. Data were assessed in duplicates. […] The Alamar Blue cell viability assay was used to determine the IC50 concentrations for the inhibition of cell proliferation or induction of cell death by the ets articles as well as the reference Compound A. Primary data from all assays were plotted for each test compound, cell system and test concentration, with the y-axis representing the readout for cell proliferation/viability and the x-axis representing the compound concentration (μM). […]

[2] = system: PEER (B-ALL); test: Alamar Blue cell viability assay, PEER; assay type: cell-based; details: Homo sapiens, 72 hours
Method: as §1, §2, §3, §4

[3] = system: SUP-B15 (B-ALL); test: Alamar Blue cell viability assay, SUP-B15; assay type: cell-based; details: Homo sapiens, 72 hours
Method: as §1, §2, §3, §4

[4] = Mouse pharmacokinetics, intravenous and oral, plasma LC/MSMS; assay type: in vivo; details: Mice CD1; for bioavailability: read-out: Bioavailability factor
Method: Compound A (Stored at ca. +5° C.)
Formulation preparation for oral routes: […]
Animal Phase: • Species: Mice CD1 (supplied from Harlan, France) • Routes tested: Intravenous (Mice Nos.39 to 52 incl.), oral low dose (Mice Nos.53 to 63 incl.) and oral high dose (Mice Nos.65 to 76 incl.) • Animals were not fasted.
Times of blood sampling performed from the abdominal aorta (2 animals per time point): • Intravenous route (IV): 5 min, 15 min, 30 min, 1 h, 2 h, 6 h and 24 h • Oral routes (PO): 15 min, 30 min, 1 h, 3 h, 6 h and 24 h
Plasma was harvested by centrifugation of blood at 3500 g for 10 minutes at ca. +5° C.
Plasma was stored at ca. −20° C. until analysis.
Analytical method: LC/MSMS after extraction
Calibration undertaken in plasma (5 levels in mice, twice injected, ranging from 10 to 1000 ng.mL^−1)
HPLC Conditions: • Colonne: Zorbax C18 50×2.1 mm, 3.5 μm • Filter: A102X 5 μm • Injected volume: 20 μL • Mobile phase flow: 0.1 mL.min^−1 • Autosampler temperature: ca. +5° C. • Oven temperature: ca. +30° C. • Run time: 10 min • Mobile phase: deionized water with 0.1% formic acid/methanol with 0.1% formic acid; 30:70 v/v (isocratic) • Retention time: ca. 2.1 min
Extraction Method for Plasma Sample: • 50 μL of plasma combined with 100 μL of methanol • Vortexed a few seconds • Centrifuged 3 min at 13 000 rpm at ca. +5° C. • Diluted 50 μL of the supernatant with 50 μL of deionized water in a HPLC vial for injection • Vortexed a few seconds • Injected into the HPLC/MSMS system Extraction Method for Plasma Calibration Sample: • 50 μL of plasma sample combined with 100 μL of spiking solution • Vortexed a few seconds • Centrifuged 3 min at 13 000 rpm at ca. +5° C. • Diluted 50 μL of the supernatant with 50μL of deionized water in a HPLC vial for injection • Vortexed a few seconds • Injected into the HPLC/MSMS system Results: Animal and Analytical Phase Results: […]

[5] = mouse, plasma, intravenous 3.83 mg/kg
[6] = mouse, plasma, oral high dose 50.2 mg/kg
[7] = mouse, plasma, oral low dose 10.0 mg/kg

In the case of `CCN1C/C(=C\c2cc(OC)c(OC)c(OC)c2)C(=O)/C(=C/c2cc(OC)c(OC)c(OC)c2)C1` [Compound A], the IC50 [1] is reported as 970 nM, the IC50 [2] is reported as 720 nM and the IC50 [3] is reported as 1030 nM. It also gave a concentration at 0.083 h ([4]; CD1, mouse, plasma, iv, 3.83 mg/kg, intravenous 3.83 mg/kg, 0.083 h, individual mice, read-out: Plasma levels) of 200 ng/mL, a concentration at 0.25 h ([4]; CD1, mouse, plasma, iv, 3.83 mg/kg, intravenous 3.83 mg/kg, 0.25 h, individual mice, read-out: Plasma levels) of 64.4 ng/mL and a concentration at 0.5 h ([4]; CD1, mouse, plasma, iv, 3.83 mg/kg, intravenous 3.83 mg/kg, 0.5 h, individual mice, read-out: Plasma levels) of 57.5 ng/mL. It also gave a concentration at 2 h ([4]; CD1, mouse, plasma, iv, 3.83 mg/kg, intravenous 3.83 mg/kg, 2 h, individual mice, read-out: Plasma levels) of 17.9 ng/mL, a concentration at 0.5 h ([4]; CD1, mouse, plasma, po, 10 mg/kg, oral low dose 10.0 mg/kg, 0.5 h, individual mice, read-out: Plasma levels) of 71.7 ng/mL and a concentration at 1 h ([4]; CD1, mouse, plasma, po, 10 mg/kg, oral low dose 10.0 mg/kg, 1 h, individual mice, read-out: Plasma levels) of 83.5 ng/mL. The concentration at 3 h ([4]; CD1, mouse, plasma, po, 10 mg/kg, oral low dose 10.0 mg/kg, 3 h, individual mice, read-out: Plasma levels) was 41.7 ng/mL, the concentration at 24 h ([4]; CD1, mouse, plasma, po, 10 mg/kg, oral low dose 10.0 mg/kg, 24 h, individual mice, LOQ 10 ng · mL^−1, ND: Not Detectable, read-out: Plasma levels) was 5.8 ng/mL and the concentration at 0.25 h ([4]; CD1, mouse, plasma, po, 50.2 mg/kg, oral high dose 50.2 mg/kg, 0.25 h, individual mice, read-out: Plasma levels) was 819 ng/mL. It also gave a concentration at 0.5 h ([4]; CD1, mouse, plasma, po, 50.2 mg/kg, oral high dose 50.2 mg/kg, 0.5 h, individual mice, read-out: Plasma levels) of 434 ng/mL, a concentration at 1 h ([4]; CD1, mouse, plasma, po, 50.2 mg/kg, oral high dose 50.2 mg/kg, 1 h, individual mice, read-out: Plasma levels) of 175 ng/mL and a concentration at 3 h ([4]; CD1, mouse, plasma, po, 50.2 mg/kg, oral high dose 50.2 mg/kg, 3 h, individual mice, read-out: Plasma levels) of 137 ng/mL. For the same compound, the “% AUCextra” value ([4]; intravenous 3.83 mg/kg) was 3.2%, the Plasma levels ([4]; intravenous 3.83 mg/kg, 0.083 h, individual mice, 3.83 mg/kg) was 333.91 ng/mL and the Plasma levels ([4]; intravenous 3.83 mg/kg, 0.25 h, individual mice, 3.83 mg/kg) was 85.28 ng/mL. For the same compound, the Plasma levels ([4]; intravenous 3.83 mg/kg, 0.5 h, individual mice, 3.83 mg/kg) was 69.56 ng/mL, the Plasma levels ([4]; intravenous 3.83 mg/kg, 1 h, individual mice, 3.83 mg/kg) was 80.73 ng/mL and 39.25 ng/mL and the Plasma levels ([4]; intravenous 3.83 mg/kg, 2 h, individual mice, 3.83 mg/kg) was 12.9 ng/mL. The Plasma levels ([4]; intravenous 3.83 mg/kg, 6 h, individual mice, LOQ 10 ng · mL^−1, 3.83 mg/kg) was 14.94 ng/mL and 7.29 ng/mL, the Plasma levels ([4]; intravenous 3.83 mg/kg, 24 h, individual mice, LOQ 10 ng · mL^−1, 3.83 mg/kg) was 1.68 ng/mL and 0.36 ng/mL and the “% AUCextra” value ([4]; oral high dose 50.2 mg/kg) was 0.57%. The Plasma levels ([4]; oral high dose 50.2 mg/kg, 0.25 h, individual mice, 50.2 mg/kg) was 444.58 ng/mL, the Plasma levels ([4]; oral high dose 50.2 mg/kg, 0.5 h, individual mice, 50.2 mg/kg) was 393.99 ng/mL and the Plasma levels ([4]; oral high dose 50.2 mg/kg, 1 h, individual mice, 50.2 mg/kg) was 213.68 ng/mL. For the same compound, the Plasma levels ([4]; oral high dose 50.2 mg/kg, 3 h, individual mice, 50.2 mg/kg) was 160.65 ng/mL, the Plasma levels ([4]; oral high dose 50.2 mg/kg, 6 h, individual mice, 50.2 mg/kg) was 23.07 ng/mL and 137.34 ng/mL and the Plasma levels ([4]; oral high dose 50.2 mg/kg, 24 h, individual mice, LOQ 10 ng · mL^−1, 50.2 mg/kg) was 2.36 ng/mL and 1.04 ng/mL. The “% AUCextra” value ([4]; oral low dose 10.0 mg/kg) was 4.1%, the Plasma levels ([4]; oral low dose 10.0 mg/kg, 0.25 h, individual mice, 10 mg/kg) was 67.54 ng/mL and 178.37 ng/mL and the Plasma levels ([4]; oral low dose 10.0 mg/kg, 0.5 h, individual mice, 10 mg/kg) was 83.39 ng/mL. For the same compound, the Plasma levels ([4]; oral low dose 10.0 mg/kg, 1 h, individual mice, 10 mg/kg) was 70.35 ng/mL, the Plasma levels ([4]; oral low dose 10.0 mg/kg, 3 h, individual mice, 10 mg/kg) was 40.47 ng/mL and the Plasma levels ([4]; oral low dose 10.0 mg/kg, 6 h, individual mice, LOQ 10 ng · mL^−1, 10 mg/kg) was 2.67 ng/mL and 6.30 ng/mL. It also gave an AUC [4, 5] of 254 ng·h/mL, an AUC(0-t) [4, 5] of 246 ng·h/mL and a Vd [4, 5] of 119 L/kg. It also gave a clearance ([4]; mouse, plasma, intravenous 3.83 mg/kg, read-out: Total Clearance (converted)) of 251 mL/min/kg, a half-life ([4]; mouse, plasma, intravenous 3.83 mg/kg, read-out: T½ (converted)) of 330 min and an AUC [4, 6] of 1400 ng·h/mL. It also gave an AUC(0-t) [4, 6] of 1390 ng·h/mL, a Cmax [4, 6] of 632 ng/mL and a Tmax [4, 6] of 15 min. It also gave a bioavailability ([4]; mouse, plasma, oral high dose 50.2 mg/kg vs intravenous) of 43.4%, an AUC [4, 7] of 321 ng·h/mL and an AUC(0-t) [4, 7] of 308 ng·h/mL. For the same compound, the Cmax [4, 7] was 123 ng/mL, the Tmax [4, 7] was 15 min and the bioavailability ([4]; mouse, plasma, oral low dose 10.0 mg/kg vs intravenous) was 48%.
